Measurements published in patent publication US5409949A, “Methylen-oxindole derivatives compositions and tyrosine kinase inhibition therewith” (Farmitalia Carlo Erba S.r.l., priority 1991, dated 1995).

Key:
v-abl kinase [1] = experiment: Myelin Basic Protein phosphorylation assay; assay type: biochemical; details: myelin basic protein 56 μM as substrate, 10 μM cold ATP, pH 8.0, 22° C.
Protocol: (§1) The tyrosine specific protein kinase activity of these compounds is shown by the in vitro tests described herebelow.
(§2) The enzyme used in the Abelson tyrosine kinase p95^v-ab which was produced and isolated as follows: 1 Liter cultures of HB-130 cells in LB medium, supplemented with ampicillin, were grown at 30° C. as described by Wang et al. in J. Biol. Chem. 260, 64 (1985). The expression of v-abl protein was induced by shifting the temperature to 42° C. for 3-4 h. The bacterial cells were collected on ice, centrifuged and frozen in liquid nitrogen. The cell pellet was lysed as described by Ferguson et al. in J. Biol. Chem. 260, 3652 (1985) and in Biochem. J. 257, 321 (1989). Briefly, bacterial proteins were removed by differential solubilization with sodium deoxycholate, NaCl and β-octylglucopyranoside in different steps. Insoluble v-abl protein was solubilized with 2M KSCN and dialyzed against 100 volumes of 50 mM Tris-HCl, pH 7.5, 1 mM EDTA and 0.1 mM dithiothreitol (buffer A). The soluble proteins were separated by chromatography on a prepacked Mono-Q anion exchange column in a f.p.l.c. system. […]
The in vitro test with Myelin Basic Protein as substrate was carried out as follows: Protein phosphorylation was performed by incubating 40 ng of purified v-abl kinase, 1.5 μCi […] Bands were located by autoradiography, excised from gel and counted in a liquid scintillation counter.

v-abl kinase [2] = experiment: Autophosphorylation assay (v-abl kinase); assay type: biochemical; details: immunoprecipitated v-abl kinase, 10 μM ATP, 15 min, room temperature
Protocol: as §1
as §2, with “A).” for “A). The soluble proteins were separated by chromatography on a prepacked Mono-Q anion exchange column in a f.p.l.c. system.”
For the autophosphorylation assay the v-abl kinase was immunoprecipitated with antiphosphotyrosine antibodies and the resulting immunocomplex analyzed in 50 μl of kinase buffer in the presence of 10 μM ATP and 10 μCi […]. […] Bands were located by autoradiography, excised and counted as above. […]

`O=C1Nc2ccccc2C1=Cc1c[nH]c2ccccc12` [3-[(3'-indolyl)methylen]-2-oxindole] was tested. Which IC50 (v-abl kinase [1]) did it give?
Its IC50 is 600 nM.

What about the IC50 (v-abl kinase [2]) of the same molecule?
Its IC50 is 10000 nM.

For `O=C1Nc2ccc(O)cc2C1=Cc1c[nH]c2ccccc12` [5-Hydroxy-3-[(3'-indolyl)methylene]-2-oxindole], which IC50 (v-abl kinase [1]) is on record?
The IC50 was 400 nM.

And the IC50 (v-abl kinase [2])?
The IC50 was 400 nM.
